According to US4199579A, “Carbamates of 2-haloergolines and 2-haloergolenes and process for the preparation thereof” (priority 1975, dated 1980):
≈ marks a conversion by molar mass, not a printed value. Where a name gives a salt, the structure may show the parent alone. Read-outs that look alike come from different tables or passages of the source.

Experiments:
[1] = test system: Antidepressant activity; experiment: Antidepressant activity; format: in vivo; details: route not given
Source text: (§1) Coming now to examining the anti-asthmatic pharmaceutical compositions it has been ascertained that the compound described as D-2-bromo-6-methyl-8beta-(morpholinocarbolynoxymethyl)-ergoline, corresponding to the formula (4) is endowed with quite special [drawing 81] which render it particularly recommendable for the therapy of asthma. The compound of the formula (4) has the empirical formula C21 H26 N3 O3 Br and a mol. wt. of 448.38. It gives, with mineral and organic acid of nontoxic and pharmacologically acceptable nature, a number of salt. These are soluble in water as well as in the physiological solutions. Such are for example the maleate C25 H30 N3 O7 Br, m.p. 213° C.-216° C., or the methanesulfonate C22 H30 N3 O6 BrS, m.p. 265° C.-266° C. and can be prepared according to the conventional methods by treating the compound (4) with the equivalent quantities of the acid in an aqueous medium or in appropriate organic solvents and their mixtures such as the alcohols, the ethers, the lower aliphatic ketones and others, taken individually or in appropriate mixtures with each other as will be detailed in the Examples hereinafter. The pharmacological activity of the compound of formula (4) is unfolded in appropriate assays, carried out on the test animals and is especially conspicuous in the following test runs: […]

[2] = test system: ptosis from reserpine; experiment: Antagonism to ptosis from reserpine; format: in vivo; details: po, read-out: Antagonism to ptosis from reserpine ED100
[3] = test system: isolated ileum of guinea pig; experiment: AntiBaCl2 activity in vitro (c): antagonism of the spasmogenic action of barium chloride on the isolated ileum; format: cell-based; details: Cavia porcellus, read-out: AntiBaCl2 (c) vitro EC50
Procedure: (c) Magnus, Pflugers Arch.Ges.Physiol. 102, 123 (1904)
The substance antagonizes the spasmogenic action of the barium chloride on the isolated ileum of guinea pig at dosages of between 1 and 5 μg/ml. […] On the isolated caudal arteria of rat, the compound II inhibits the vaso-constricting effect as caused by the perfusion with hyperpotassium Ringer's solution.

[4] = biological target: alpha-adrenergic receptors; details: in vitro; comparison compound, reference (d) or (e); cited from earlier work
[5] = test system: alpha-adrenergic receptors; details: e.v.; comparison compound, reference (e); cited from earlier work
[6] = Acute toxicity in mice; format: in vivo, mouse; details: mouse, in vivo, mouse
Source text: (§2) |Toxicity LD50 mice orally

[7] = test system: alpha-adrenergic receptors; experiment: Antiadrenalic activity in vivo (b): protection of rats from the lethal effect of adrenaline; design: species or system rat; details: for Antiadrenalic activity (b) vivo ED50: Table 2; for ED50 protecting rats from the lethal effect of adrenaline / activity higher than that of nicergoline: rat
[8] = test system: alpha-adrenergic receptors; experiment: Antiadrenalic (antiadrenergic) activity in vitro (a): antagonism of the spasmogenic effect of adrenaline on the seminal vesicle; format: cell-based, guinea pig
Source text: More particularly the novel compounds display a vasodilatory activity on the peripheral circulatory system, an hypotensive activity and a spasmolytic effect on the gastrointestinal smooth muscles or a blocking activity towards the alpha-adrenergic receptors, both in "vitro" and in "vivo".
(a) J. Brugger, Helv. Physiol. Pharmacol. Acta 3, 117 (1945)
The product is antagonizing the spasmogenic effect of the adrenaline on the seminal vesicle of guinea pig at concentrations of between 0.1 and 10 pg/ml, as well as the vaso- constricting effect of the noradrenaline on the isolated and perfused caudal arteria of rat, at dosages of between 1 and 10 μg total. Furthermore it antagonizes the contracturing effect of adrenaline and noradrenaline on the "vas deferens" of guinea pig and rat, at concentrations of 0.1 to 10 ng/ml.

[9] = test system: Anti-Parkinson activity; experiment: Anti-Parkinson activity; format: in vivo; details: po; orally
[10] = test system: Beagle dogs; experiment: 7-month oral administration to Beagle dogs; format: in vivo, dog; details: 7 months, about 8 mg/kg per oral route
[11] = test system: central nervous system (CNS); experiment: CNS behaviour tests (swimming of the rat, reserpine ptosis, tetrabenazine catatonia, motility and exploration, behaviour); format: in vivo, rat; mouse; rabbit; dog
Source text: The compound belongs to the class of the ergolene derivatives in which substances are found which cause stimulating effects on the central nervous system (CNS); several behaviour tests have been carried out on animals, in order to assess a possible exciting and hallucinogen action.

[12] = test system: histamine; experiment: Anti-histaminic activity in vitro; format: cell-based; details: ratio to alpha-blocking concentration
[13] = test system: serotonin; experiment: Anti-serotoninic activity in vitro; format: cell-based; details: ratio to alpha-blocking concentration
[14] = test system: alpha-adrenergic receptors; experiment: Protection of mice from the lethal effect of adrenaline; format: in vivo; details: mouse
[15] = test system: anaesthetized rat; experiment: Arterial pressure in the anaesthetized rat; format: in vivo; details: iv, e.v., read-out: dosage from which arterial pressure is reduced
Procedure: (§3) In the anaesthetized cat and rat, the compound causes the arterial pressure to be reduced, starting from dosages of 50 and 30 μg/kg e.v. respectively. In the "pithed" rat the compound, when intravenously administered, antagonizes the hypertensive effect of the adrenaline (ED-50 46 mg/kg).

[16] = test system: "pithed" rat; experiment: Antagonism of the hypertensive effect of adrenaline in the pithed rat; format: in vivo; details: iv, intravenously, read-out: ED-50 antagonizing the hypertensive effect of adrenaline
Procedure: as §3

[17] = test system: anaesthetized cat; experiment: Arterial pressure in the anaesthetized cat; format: in vivo; details: Felis catus, iv, e.v., read-out: dosage from which arterial pressure is reduced
Procedure: as §3

[18] = test system: acetylcholine; experiment: Anti-acetylcholinic activity in vitro; format: cell-based; details: ratio to alpha-blocking concentration
[19] = test system: Anorexia; experiment: Anorexia; format: in vivo; details: po; orally
[20] = test system: Myorelaxing activity; experiment: Myorelaxing activity; format: in vivo; details: route not given
Source text: as §1

[21] = test system: mice; experiment: Acute toxicity in mice; format: in vivo, mouse; details: acute toxicity
Source text: as §2

[22] = iv, e.v., Table 2, read-out: DL50 e.v. in the mouse

| Compound | LD50 [6, 22] | EC50 [3] | Antiadrenalic activity (b) vivo ED50 ([7]; e.v.) | Antiadrenalic activity (a) vitro EC50 [8] | other results |
| --- | --- | --- | --- | --- | --- |
| CN(C)CCCN1c2ccccc2CCc2ccccc21 [imipramine, reference compound] |  |  |  |  | ED100 [1]: 25 mg/kg; ED100 ([2]; orally): 25 mg/kg |
| CO[C@]12C[C@@H](COC(=O)c3cncc(Br)c3)CN(C)[C@@H]1Cc1cn(C)c3cccc2c13 [nicergoline, reference compound] | 74.3 mg/kg |  |  |  | EC50 ([3]; in vitro): 2.1 µg/mL (≈ 4.34 µM); Antiadrenalic activity (a) vitro EC50 [4]: 0.007 µg/mL; Antiadrenalic activity (b) vivo ED50 [5]: 0.02 mg/kg |
| CN1C[C@H](COC(=O)N2CCCC2)C[C@@H]2c3cccc4[nH]c(Br)c(c34)C[C@H]21 [Example 10, D-2-bromo-6-methyl-8beta-(pyrrolydycarbonyloxy-methyl)-ergoline maleate] | 15 mg/kg | 4 µg/mL | 0.0155 mg/kg | 2 ng/mL |  |
| N[C@@H](Cc1ccc(O)c(O)c1)C(=O)O [L-dopa, reference compound] |  |  |  |  | ED100 [9]: 300 mg/kg |
| dihydroergotoxine |  |  |  |  | Antiadrenalic activity (a) vitro EC50 [4]: 0.078 µg/mL; Antiadrenalic activity (b) vivo ED50 [5]: 0.05 mg/kg |
| CN1C[C@H](COC(=O)N2CC3CCC(CC3)C2)C[C@@H]2c3cccc4[nH]c(Br)c(c34)C[C@H]21 [Example 20, D-2-bromo-6-methyl-8beta-(3-azabicyclo [3,2, 2]-nonanylcarbonyloxymethyl)-ergoline] | 50 mg/kg | > 100 µg/mL | 0.198 mg/kg | 375 ng/mL |  |
| CN1C[C@H](COC(=O)N2CCC2)C[C@@H]2c3cccc4[nH]c(Br)c(c34)C[C@H]21 [Example 7, D-2-bromo-6-methyl-8beta-(azetidinylcarbonyloxymethyl)-ergoline] | 8.7 mg/kg | 1.4 µg/mL (≈ 3.35 µM) | 0.05 mg/kg | 5 ng/mL |  |
| CN1C[C@H](COC(=O)N2CCCCCC2)C[C@@H]2c3cccc4[nH]c(Br)c(c34)C[C@H]21 [Example 2, D-2-bromo-6-methyl-8beta-(perhydroazepinylcarbonyloxymethyl)-ergoline] | 39.4 mg/kg | 3.1 µg/mL (≈ 6.73 µM) | 0.008 mg/kg | 0.0017 ng/mL | macroscopic or microscopic alterations of the main organs [10]: did not cause macroscopic or microscopic alterations; modifications of the weight, hematological and hematochemical parameters [10]: did not cause modifications; ECG modifications ([11]; in vivo): ECG modifications of sedative type were always detected; exciting property in behaviour tests ([11]; rat, mice, rabbit, dog): no evidence were found of any exciting property; ED50 protecting rats from the lethal effect of adrenaline ([7]; e.v.): 0.008 mg/kg; activity higher than that of nicergoline ([7]; intravenously): 2.5 times; activity higher than that of nicergoline ([7]; orally): 24 times; ED50 protecting rats from the lethal effect of adrenaline ([7]; per os): 0.37 mg/kg; anti-histaminic activity: concentration higher than that showing the alpha-blocking effect [12]: 800 times; anti-serotoninic activity: concentration higher than that showing the alpha-blocking effect [13]: 200 times; ED50 protecting mice from the lethal effect of adrenaline ([14]; e.v.): 0.051 mg/kg; ED50 protecting mice from the lethal effect of adrenaline ([14]; per os): 0.61 mg/kg; minimal effective dose [15]: ≥ 0.03 mg/kg; ED50 [16]: 0.046 mg/kg; minimal effective dose [17]: ≥ 0.05 mg/kg; anti-acetylcholinic activity: concentration higher than that showing the alpha-blocking effect [18]: 4500 times |
| CN(C)C(=O)OC[C@@H]1C[C@@H]2c3cccc4[nH]c(Br)c(c34)C[C@H]2N(C)C1 [Example 4, D-2-bromo-6-methyl-8beta-(N,N-dimethylcarbamoyloxymethyl)-ergoline] | 7.1 mg/kg | 10 µg/mL (≈ 24.6 µM) | 0.0112 mg/kg | 10 ng/mL |  |
| CCN(CC)C(=O)OC[C@@H]1C[C@@H]2c3cccc4[nH]c(Br)c(c34)C[C@H]2N(C)C1 [Example 6, D-2-bromo-6-methyl-8beta-(N,N-diethylcarbamoyloxymethyl)-ergoline] | 13.7 mg/kg | 3.8 µg/mL (≈ 8.75 µM) | 0.0803 mg/kg | 4.7 ng/mL |  |
| CN1CCN(C(=O)OC[C@@H]2C[C@@H]3c4cccc5[nH]c(Br)c(c45)C[C@H]3N(C)C2)CC1 [Example 18, D-2-bromo-6-methyl-8beta-(4,methylpiperazinyl-carbonyloxymethyl)-ergoline] | 27.3 mg/kg | > 100 µg/mL | > 0.32 mg/kg | 50 ng/mL |  |
| CC(N)Cc1ccccc1 (centres unmarked) [amphetamine, reference compound] |  |  |  |  | ED100 [19]: 5 mg/kg |
| CCC1(c2ccccc2)C(=O)NC(=O)NC1=O [phenobarbital, reference compound] |  |  |  |  | ED100 [20]: 100 mg/kg |
| CN1C[C@H](COC(=O)N2CCCCC2)C[C@@H]2c3cccc4[nH]c(Br)c(c34)C[C@H]21 [Example 12, D-2-bromo-6-methyl-8beta-(piperidinocarbonyloxymethyl)-ergoline] | 50 mg/kg | 3.5 µg/mL (≈ 7.84 µM) | 0.0202 mg/kg | 3.7 ng/mL |  |
| CN1C[C@H](COC(=O)N2CCCCCC2)C[C@@H]2c3cccc4c3c(c(Br)n4C)C[C@H]21 [Example 14, D-2-bromo-1,6-dimethyl-8beta-(perhydroazepinylcarbonyloxymethyl) ergoline] |  |  |  |  | ED100 [9]: 20 mg/kg; ED100 [2]: 0.01 mg/kg; LD50 ([6]; iv, mice, intravenously, compound (3), read-out: Toxicity LD50 mice, intravenously): 65 to 83 mg/kg; LD50 ([6]; po, mice, orally, compound (3), read-out: Toxicity LD50 mice, orally): 600 mg/kg; acute toxicity in words [21]: well tolerated and poorly toxic; ED100 [19]: 5 mg/kg |
